Results published in patent US20210161913A1, “OXYGENATED CHOLESTEROL SULFATES FOR THERAPY OF DISORDERS CAUSED BY AT LEAST ONE OF ATTENUATED LEPTIN ACTIVITY AND A LIPID STORAGE DISORDER” (Virginia Commonwealth University, priority 2015, published 2021).

Experiments:
[1] = tested on: leptin-deficient (obese fa/fa) Zucker rats; assay: Quantification of hepatic lipids in Zucker rats; format: in vivo, rat; settings: 21 days
Excerpt: (§1) To examine the effect of 25HC3S on lipid accumulation in sera and in the liver in a leptin-deficient (obese fa/fa) animal model (Zucker rats), 11 week old Zucker rats (Charles River, Wilmington, Mass.) were randomly assigned into four groups. Obese fa/fa Zucker rats have a defective leptin receptor and serve as a general animal model for deficiencies in leptin activity, whether due to low leptin levels, congenital defects in the leptin receptor or acquired leptin resistance, since all result in inadequate or faulty leptin activity. Further, these animals develop unwanted lipid accumulation after several weeks of life due to a genetic mutation in the leptin receptor. All rats were housed under identical conditions with a 12-hour light/12-hour dark cycle and given free access to water and food. The rats (n=5 in each treatment) were gavaged orally with vehicle (10% cellulose) or 25HC3S (10 mg/kg, 30 mg/kg, and 100 mg/kg) once a day for 21 days and fasted overnight (14 hrs) before collection of samples. To compare with gavage administration, other rats (n=10-17 in each treatment) were intraperitoneally injected with vehicle solution (ethanol/PBS; vehicle) or 25HC3S (50 mg/kg) once every three days for 6 weeks and fasted overnight (14 hrs). Blood samples were collected before sacrifice. Serum triglyceride (TG), total cholesterol (CHOL), high density lipoprotein-cholesterol (HDL-C), alkaline phosphatase (ALK), alanine aminotransferase (ALT), and aspartate aminotransferase (AST) were measured using standard enzymatic techniques. Lipoprotein profiles in sera were analyzed by HPLC in the following descriptions.
Liver tissues were homogenized, and the hepatic total lipids were extracted using a mixture of chloroform and methanol (2:1, v:v). After the extracts were filtered, 0.2 ml of each was evaporated to dryness and dissolved in 100 μl of isopropanol containing 10% Triton™ X-100 for cholesterol assay (Wako Chemicals USA, Richmond, Va.), 100 μl of NEFA solution (0.5 g of EDTA-Naz, 2 g of Triton™ X-100, 0.76 ml of 1N NaOH, and 0.5 g of sodium azide/1, pH 6.5) for the free fatty acid assay (Wako Chemicals USA, Richmond, Va.), or 100 μl of isopropanol only for the triglyceride assay (Fisher Scientific, Pittsburgh, Pa.). Each lipid concentration was normalized by liver weight.

primary hepatocytes = settings: Ma et al., 2008, Ren et al., 2007, Xu et al., 2010; cited from earlier work
[2] = tested on: leptin-deficient (obese fa/fa) Zucker rats; assay: Serum lipid levels in leptin-deficient (obese fa/fa) Zucker rats after 25HC3S administration; format: in vivo, rat
Excerpt: as §1, with “descriptions. The lipoproteins, triglycerides and cholesterol in very low density lipoprotein (VLDL), low-density lipoprotein (LDL) and high-density lipoprotein (HDL) were measured by gel filtration using HPLC as previously described (Bai et al., 2012). Briefly, rat serum (100 μl) was eluted with a solvent of 154 mM NaCl with 0.1 mM EDTA (pH 8.0) at a flow rate of 0.2 ml/min via a Pharmacia Superose 6 HR 10/30 FPLC column, and the signal was read at a wavelength of 280 nm. Fractions were collected for 1.2 min each from 20 min up to 100 min. 180 μl of each fraction plus 20 μl of a 10× solution of Wako Total Cholesterol E Reagent (Wako Chemicals USA, Richmond, Va.) was incubated in a 96-well plate at 37° C. for 3 hrs in the dark to analyze cholesterol levels, and the absorbance was read at a wavelength of 595 nm. 2 μl of each fraction plus 200 μl of Infinity™ Triglycerides Reagent (Fisher Scientific, Pittsburgh, Pa.) was incubated in a 96-well plate at 37° C. for 5 minutes in dark to analyze triglyceride levels, and the absorbance was read at a wavelength of 500 nm. The lipoprotein profile was monitored as an internal control.” for “descriptions.”

THP-1 macrophages = settings: Ma et al., 2008, Ren et al., 2007, Xu et al., 2010; cited from earlier work
[3] = tested on: leptin-deficient (obese fa/fa) Zucker rats; assay: Liver histo-morphology (HE and Oil Red O staining), hepatic lipidosis in Zucker rats; format: in vivo, rat; design: key to Force Rank (Oil Red O): 1 = least severe; 5 = most severe; settings: for Force Rank (Oil Red O) / Severity of Hepatic Lipidosis: N = 5 males
Excerpt: as §1, with “descriptions. Three specimens from different regions of the liver of each rat were collected and fixed in 4% paraformaldehyde in 0.1 M phosphate buffer at room temperature overnight. The regions of the specimens were standardized for all rats. The paraffin-embedded tissue sections (4 μm) were stained with hematoxylin and eosin (HE). 3-3′-Diaminobenzidine (DAB) was used as the chromogen, and hematoxylin was used as the nuclear counterstain. Determination of total intracellular lipids: Oil Red O staining of intracellular neutral lipids: the liver slides were fixed with 3.7% formaldehyde in PBS for 30 min followed by two washes with phosphate-buffered saline (PBS). The cells were stained with 0.2% Oil Red O in 60% 2-propanol for 10 min and washed three times with PBS. The images were taken with the use of a microscope (Olympus, Tokyo, Japan) equipped with image recorder under 40× lenses. All slides of tissue were qualitatively examined by light microscopy by a board certified veterinary pathologist. The incidence and severity of the lesions were scored. Lesions were also assessed for duration and distribution.” for “descriptions.”

[4] = gavage 10 mg/kg, normalized by liver weight
[5] = gavage administration once a day for 21 days, fasted overnight, vs vehicle
[6] = intraperitoneal administration, 50 mg/kg once every three days

Structure (SMILES): CC(CCCC(C)(C)O)C1CCC2C3CC=C4CC(OS(=O)(=O)O)CCC4(C)C3CCC12C (stereo not shown) [25HC3S, 5-cholesten, 3-, 25-diol, 3-sulfate]
- liver free cholesterol concentration ([1]; administration of 25HC3S): not affected
- reduction of liver tissue free fatty acids [1, 4]: 26%
- reduction of liver tissue total cholesterol [1, 4]: 25%
- reduction of liver tissue triglyceride [1, 4]: 43%
- lipid accumulation (primary hepatocytes): reduce lipid accumulation
- decrease of plasma CHOL [2, 5]: 17%
- decrease of plasma TG [2, 5]: 30%
- change in HDL levels ([2]; gavage administration, 21 days): no significant change
- change in LDL levels ([2]; gavage administration, 21 days): no significant change
- serum HDL [2, 6]: significantly decreased
- serum total cholesterol [2, 6]: significantly decreased
- serum triglyceride [2, 6]: significantly decreased
- lipid accumulation (THP-1 macrophages): reduce lipid accumulation
- Force Rank (Oil Red O) ([3]; 10 mg/kg/day gavage): 4
- Severity of Hepatic Lipidosis ([3]; 10 mg/kg/day gavage): Mild to moderate
- Force Rank (Oil Red O) ([3]; 30 mg/kg/day gavage): 3
- Severity of Hepatic Lipidosis ([3]; 30 mg/kg/day gavage): Mild to moderate
- Force Rank (Oil Red O) ([3]; 50 mg/kg IP every 3 days): 2
- Severity of Hepatic Lipidosis ([3]; 50 mg/kg IP every 3 days): Mild
- Force Rank (Oil Red O) ([3]; 100 mg/kg/day gavage): 1
- Severity of Hepatic Lipidosis ([3]; 100 mg/kg/day gavage): Mild
- lipid inclusions in hepatocytes (HE stained liver sections) ([3]; 10, 30 and 100 mg/kg PO (FIGS. 3B, C, D) vs control rats): significantly decreased
